What was measured:
[1] = system: LOLRI; assay: Herbicidal pre-emergence action (Table A3); type: in vivo, Lolium rigidum; conditions: application rate 320 g/ha; visual grading after ca. 3 weeks
Outline: (§1)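 Paired sowings (monocot weed with dicot weed) in potted sandy loam, seeds soil-covered.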

[2] = system: ABUTH; assay: Herbicidal pre-emergence action (Table A1); type: in vivo, Abutilon theophrasti; conditions: application rate 1280 g/ha; visual grading after ca. 3 weeks vs untreated controls (100% = plants have died off, 0% = as control plants)
Outline: as §1

[3] = system: LOLRI; assay: Herbicidal pre-emergence action, section C (Table C7); type: in vivo, Lolium rigidum; conditions: application rate 320 g/ha; visual grading after ca. 3 weeks
[4] = system: SETVI; assay: Herbicidal post-emergence action (Table B8); type: in vivo, Setaria viridis; conditions: application rate 1280 g/ha
Outline: (§2)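 Treated at one-leaf stage (2–3 weeks after sowing in sandy loam, greenhouse-grown). Visual efficacy rating after about 3 weeks; 0% = like controls, 100% = complete kill.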

[5] = system: ECHCG; assay: Herbicidal pre-emergence action, section C (Table C6); type: in vivo, Echinochloa crus-galli; conditions: application rate 80 g/ha; visual grading after ca. 3 weeks
[6] = system: ALOMY; assay: Herbicidal pre-emergence action (Table A9); type: in vivo, Alopecurus myosuroides; conditions: application rate 1280 g/ha; visual grading after ca. 3 weeks
Outline: as §1

[7] = system: DIGSA; assay: Herbicidal pre-emergence action, section C (Table C5); type: in vivo, Digitaria sanguinalis; conditions: visual grading after ca. 3 weeks
[8] = system: ORYZA; assay: Pre-emergence effects on crop plants (Table D3); conditions: crop plant; application rate 80 g/ha; visual grading after ca. 3 weeks
[9] = system: ABUTH; assay: Herbicidal pre-emergence action, section C (Table C1); type: in vivo, Abutilon theophrasti; conditions: application rate 320 g/ha; visual grading after ca. 3 weeks
[10] = system: STEME; assay: Herbicidal pre-emergence action (Table A6); type: in vivo, Stellaria media; conditions: application rate 320 g/ha; visual grading after ca. 3 weeks
Outline: as §1

[11] = system: MATIN; assay: Herbicidal pre-emergence action (Table A4); type: in vivo, Matricaria inodora; conditions: application rate 1280 g/ha; visual grading after ca. 3 weeks
Outline: as §1

[12] = system: ABUTH; assay: Herbicidal post-emergence action, section E (Table E1); type: in vivo, Abutilon theophrasti; conditions: application rate 320 g/ha; assessed visually after ca. 3 weeks
Text: (§3) 2 to 3 weeks after sowing, the test plants were sprayed in the single-leaf stage.

[13] = system: POAAN; assay: Herbicidal pre-emergence action (Table A7); type: in vivo, Poa annua; conditions: application rate 320 g/ha; visual grading after ca. 3 weeks
Outline: as §1

[14] = system: ECHCG; assay: Herbicidal post-emergence action (Table B3); type: in vivo, Echinochloa crus-galli; conditions: application rate 1280 g/ha; rated visually after about 3 weeks
Outline: as §2

[15] = system: TRZAS; assay: Post-emergence effects on crop plants (Table F2); type: in vivo, Triticum aestivum; conditions: application rate 320 g/ha, crop plant TRZAS
Text: as §3

[16] = system: ZEAMX; assay: Post-emergence effects on crop plants (Table F1); type: in vivo, Zea mays; conditions: application rate 320 g/ha, crop plant ZEAMX
Text: as §3

[17] = system: VERPE; assay: Herbicidal pre-emergence action (Table A11); type: in vivo, Veronica persica; conditions: application rate 1280 g/ha; visual grading after ca. 3 weeks
Outline: as §1

[18] = system: ALOMY; assay: Herbicidal pre-emergence action, section C (Table C2); type: in vivo, Alopecurus myosuroides; conditions: application rate 320 g/ha; visual grading after ca. 3 weeks
[19] = system: SETVI; assay: Herbicidal pre-emergence action (Table A5); type: in vivo, Setaria viridis; conditions: application rate 320 g/ha; visual grading after ca. 3 weeks
Outline: as §1

[20] = system: SETVI; assay: Herbicidal pre-emergence action, section C (Table C10); type: in vivo, Setaria viridis; conditions: application rate 320 g/ha; visual grading after ca. 3 weeks
[21] = system: VIOTR; assay: Herbicidal pre-emergence action, section C (Table C12); type: in vivo, Viola tricolor; conditions: application rate 80 g/ha; visual grading after ca. 3 weeks
[22] = system: VIOTR; assay: Herbicidal post-emergence action, section E (Table E10); type: in vivo, Viola tricolor; conditions: application rate 320 g/ha; assessed visually after ca. 3 weeks
Text: as §3

[23] = system: ORYZA; assay: Post-emergence effects on crop plants (Table F3); type: in vivo, Oryza sativa; conditions: application rate 320 g/ha, crop plant ORYZA
Text: as §3

[24] = system: AMARE; assay: Herbicidal pre-emergence action (Table A8); type: in vivo, Amaranthus retroflexus; conditions: application rate 1280 g/ha; visual grading after ca. 3 weeks vs untreated controls (100% = plants have died off, 0% = as control plants)
Outline: as §1

[25] = system: MATIN; assay: Herbicidal pre-emergence action, section C (Table C8); type: in vivo, Matricaria inodora; conditions: application rate 320 g/ha; visual grading after ca. 3 weeks
Text: Seeds of mono- and dicotyledonous weed plants and crop plants were sown, in plastic or organic planting pots, in sandy loam and covered with soil. The compounds according to the invention, formulated in the form of wettable powders (WP) or as emulsifiable concentrates (EC), were applied to the surface of the covering soil as aqueous suspension or emulsion, with the addition of 0.5% of an additive, at an application rate of 600 1 of water/ha (converted). Following treatment, the pots were placed in a greenhouse and kept under optimum growth conditions for the test plants.

[26] = system: ECHCG; assay: Herbicidal pre-emergence action (Table A2); type: in vivo, Echinochloa crus-galli; conditions: visual grading after ca. 3 weeks
Outline: as §1

[27] = system: DIGSA; assay: Herbicidal pre-emergence action (Table A12); type: in vivo, Digitaria sanguinalis; conditions: visual grading after ca. 3 weeks
Outline: as §1

[28] = system: KCHSC; assay: Herbicidal pre-emergence action (Table A10); type: in vivo, Kochia scoparia; conditions: application rate 320 g/ha; visual grading after ca. 3 weeks
Outline: as §1

[29] = system: VERPE; assay: Herbicidal pre-emergence action, section C (Table C11); type: in vivo, Veronica persica; conditions: visual grading after ca. 3 weeks
[30] = system: DIGSA; assay: Herbicidal post-emergence action (Table B12); type: in vivo, Digitaria sanguinalis; conditions: application rate 1280 g/ha
Outline: as §2

[31] = system: ZEAMX; assay: Pre-emergence effects on crop plants (Table D1); type: in vivo, Zea mays; conditions: crop plant, visual grading after ca. 3 weeks
[32] = system: MATIN; assay: Herbicidal post-emergence action (Table B6); type: in vivo, Matricaria inodora; conditions: application rate 1280 g/ha; rated visually after about 3 weeks
Outline: as §2

[33] = system: POAAN; assay: Herbicidal post-emergence action (Table B7); type: in vivo, Poa annua; conditions: application rate 1280 g/ha
Outline: as §2

[34] = system: TRZAS; assay: Pre-emergence effects on crop plants (Table D2); type: in vivo, Triticum aestivum; conditions: crop plant; application rate 320 g/ha; visual grading after ca. 3 weeks
[35] = system: VERPE; assay: Herbicidal post-emergence action (Table B10); type: in vivo, Veronica persica; conditions: application rate 1280 g/ha
Outline: as §2

[36] = system: ECHCG; assay: Herbicidal post-emergence action, section E (Table E5); type: in vivo, Echinochloa crus-galli; conditions: application rate 320 g/ha; assessed visually after ca. 3 weeks
Text: as §3

[37] = system: POLCO; assay: Herbicidal pre-emergence action, section C (Table C9); type: in vivo, Polygonum convolvulus; conditions: application rate 320 g/ha; visual grading after ca. 3 weeks
[38] = system: LOLRI; assay: Herbicidal post-emergence action (Table B5); type: in vivo, Lolium rigidum; conditions: application rate 1280 g/ha; rated visually after about 3 weeks
Outline: as §2

[39] = system: VERPE; assay: Herbicidal post-emergence action, section E (Table E9); type: in vivo, Veronica persica; conditions: application rate 320 g/ha; assessed visually after ca. 3 weeks
Text: as §3

[40] = system: ABUTH; assay: Herbicidal post-emergence action (Table B1); type: in vivo, Abutilon theophrasti; conditions: application rate 1280 g/ha; treated at one-leaf stage; rated visually after about 3 weeks vs untreated controls (100% = plants have died, 0% = like control plants)
Outline: as §2

Question: For O=C1N(Cc2ccccc2F)CCCC12CCN(Cc1c(F)cccc1F)C2=O (racemic) [I-020], which “pre-emergence activity against LOLRI” value [1] is on record?
Answer: 100%

Question: What about the “pre-emergence activity against ABUTH” value [2] of the same molecule?
Answer: 90%

Question: What about the “pre-emergence activity against LOLRI” value [3] of the same molecule?
Answer: 100%

Question: And the “post-emergence activity against SETVI” value [4]?
Answer: 90%

Question: What about the “pre-emergence activity against ECHCG” value [5] of the same molecule?
Answer: 100%

Question: What about the “pre-emergence activity against ALOMY” value [6] of the same molecule?
Answer: 90%

Question: And the “pre-emergence activity against DIGSA” value ([7]; application rate 80 g/ha)?
Answer: 100%

Question: And the “pre-emergence activity against ORYZA” value [8]?
Answer: 0%

Question: What about the “pre-emergence activity against ABUTH” value [9] of the same molecule?
Answer: 90%

Question: And the “pre-emergence activity against STEME” value [10]?
Answer: 90%

Question: And the “pre-emergence activity against MATIN” value [11]?
Answer: 90%

Question: And the “post-emergence activity against ABUTH” value [12]?
Answer: 80%

Question: What about the “pre-emergence activity against POAAN” value [13] of the same molecule?
Answer: 100%

Question: And the “post-emergence activity against ECHCG” value [14]?
Answer: 90%

Question: And the “post-emergence activity against TRZAS” value [15]?
Answer: 0%

Question: And the “post-emergence activity against ZEAMX” value [16]?
Answer: 20%

Question: And the “pre-emergence activity against VERPE” value [17]?
Answer: 90%

Question: What about the “pre-emergence activity against ALOMY” value [18] of the same molecule?
Answer: 100%

Question: And the “pre-emergence activity against SETVI” value [19]?
Answer: 100%

Question: What about the “pre-emergence activity against SETVI” value [20] of the same molecule?
Answer: 100%

Question: And the “pre-emergence activity against VIOTR” value [21]?
Answer: 90%

Question: And the “post-emergence activity against VIOTR” value [22]?
Answer: 80%

Question: What about the “post-emergence activity against ORYZA” value [23] of the same molecule?
Answer: 0%

Question: What about the “pre-emergence activity against AMARE” value [24] of the same molecule?
Answer: 90%

Question: What about the “pre-emergence activity against MATIN” value [25] of the same molecule?
Answer: 80%

Question: And the “pre-emergence activity against ECHCG” value ([26]; application rate 1280 g/ha)?
Answer: 100%

Question: And the “pre-emergence activity against DIGSA” value ([27]; application rate 320 g/ha)?
Answer: 100%

Question: And the “pre-emergence activity against KCHSC” value [28]?
Answer: 90%

Question: What about the “pre-emergence activity against VERPE” value ([29]; application rate 320 g/ha) of the same molecule?
Answer: 90%

Question: And the “post-emergence activity against DIGSA” value [30]?
Answer: 90%

Question: And the “pre-emergence activity against ZEAMX” value ([31]; application rate 80 g/ha)?
Answer: 0%

Question: For O=C1N(Cc2cccc(F)c2F)CCCC12CCN(Cc1cccc(F)c1F)C2=O (racemic) [I-025], which “pre-emergence activity against LOLRI” value [1] is on record?
Answer: 100%

Question: And the “post-emergence activity against MATIN” value [32]?
Answer: 90%

Question: What about the “post-emergence activity against POAAN” value [33] of the same molecule?
Answer: 90%

Question: What about the “pre-emergence activity against LOLRI” value [3] of the same molecule?
Answer: 90%

Question: And the “pre-emergence activity against ECHCG” value [5]?
Answer: 100%

Question: And the “pre-emergence activity against DIGSA” value ([7]; application rate 320 g/ha)?
Answer: 100%

Question: What about the “pre-emergence activity against STEME” value [10] of the same molecule?
Answer: 90%

Question: And the “pre-emergence activity against MATIN” value [11]?
Answer: 90%

Question: What about the “post-emergence activity against ABUTH” value [12] of the same molecule?
Answer: 80%

Question: And the “pre-emergence activity against POAAN” value [13]?
Answer: 100%

Question: What about the “pre-emergence activity against TRZAS” value [34] of the same molecule?
Answer: 10%

Question: And the “post-emergence activity against ECHCG” value [14]?
Answer: 90%

Question: What about the “post-emergence activity against TRZAS” value [15] of the same molecule?
Answer: 0%

Question: What about the “post-emergence activity against ZEAMX” value [16] of the same molecule?
Answer: 0%

Question: What about the “pre-emergence activity against VERPE” value [17] of the same molecule?
Answer: 90%

Question: And the “pre-emergence activity against ALOMY” value [18]?
Answer: 100%

Question: And the “pre-emergence activity against SETVI” value [19]?
Answer: 100%

Question: And the “post-emergence activity against VERPE” value [35]?
Answer: 90%

Question: What about the “post-emergence activity against ECHCG” value [36] of the same molecule?
Answer: 80%

Question: And the “pre-emergence activity against SETVI” value [20]?
Answer: 90%

Question: And the “pre-emergence activity against VIOTR” value [21]?
Answer: 90%

Question: What about the “post-emergence activity against ORYZA” value [23] of the same molecule?
Answer: 0%

Question: And the “pre-emergence activity against POLCO” value [37]?
Answer: 90%

Question: And the “pre-emergence activity against AMARE” value [24]?
Answer: 90%

Question: What about the “post-emergence activity against LOLRI” value [38] of the same molecule?
Answer: 90%

Question: And the “pre-emergence activity against MATIN” value [25]?
Answer: 90%

Question: What about the “post-emergence activity against VERPE” value [39] of the same molecule?
Answer: 80%

Question: And the “pre-emergence activity against ECHCG” value ([26]; application rate 320 g/ha)?
Answer: 100%

Question: And the “pre-emergence activity against DIGSA” value ([27]; application rate 1280 g/ha)?
Answer: 100%

Question: And the “pre-emergence activity against KCHSC” value [28]?
Answer: 90%

Question: What about the “pre-emergence activity against VERPE” value ([29]; application rate 80 g/ha) of the same molecule?
Answer: 90%

Question: What about the “post-emergence activity against DIGSA” value [30] of the same molecule?
Answer: 90%

Question: And the “pre-emergence activity against ZEAMX” value ([31]; application rate 320 g/ha)?
Answer: 0%

Question: And the “post-emergence activity against ABUTH” value [40]?
Answer: 90%
